Measured values as given in publication PMC7481357, “N-terminal Myristoylation Enhanced the Antimicrobial Activity of Antimicrobial Peptide PMAP-36PW” (Frontiers in Cellular and Infection Microbiology, 2020).
“Also recorded” adds a separate entry of the source. Residues, ends and D or L forms follow the SMILES beside them. *: point of attachment. Myristoyl = CCCCCCCCCCCCCC(=O)*

Columns and labels:
[1] = tested on: L. monocytogenes CICC 21634; format: cell-based, Listeria monocytogenes
Procedure: (§1) The MICs of Myr-36PW in vitro were measured through microdilution in accordance with the Clinical and Laboratory Standards Institute (CLSI, [2020]). The bacterial cells were cultured for 12 h at 37°C in the appropriate medium and then diluted to 1 × 10^6 CFU/mL. Equal volumes (100 μL) of bacterial cell suspension and two-fold serially diluted different concentrations peptides (0.0039–256 μg/mL) were added to each well of the sterile 96-well plate. The samples were incubated for 18 h at 37°C. After incubation, the MICs of the peptides were determined by evaluating the growth based on the OD600 of the cultures.

S. aureus ATCC 25923 [2] = assay: Peritonitis model; format: in vivo, BALB/c mice; details: intraperitoneal 60 μL, 1 μg/μL, once a day for 3 days; for Liver pathogenic scores: compared with PBS group; for Liver pathogenic scores / Bacterial CFU in liver and spleen homogenate / Spleen pathogenic scores: n = 5
Procedure: The peritonitis model in vivo was generated by intraperitoneally injecting S. aureus ATCC 25923 (2.5 × 10^9 CFU/mL, 140 μL). Sixty mice were randomly divided into six groups of 10 members: those who received no infection and treatment was used as a blank control, those with […] administration of PBS (60 μL) as the negative control group, those administered with benzylpenicillin potassium (60 μL, 1 μg/μL) as the positive control group, and the remaining three groups corresponded to three antimicrobial peptide groups of Myr-36PW (60 μL, 1 μg/μL), PMAP-36PW (60 μL, 1 μg/μL), and PMAP-36 (60 μL, 1 μg/μL). After 4 h post-inoculation, treatment was initiated by intraperitoneal injection once a day for 3 days. The mice were sacrificed 24 h the treatment. Changes in the appearance of anatomical tissues were observed. The liver and spleen tissues were removed aseptically from the mice, and half of these samples were gently fixed in buffered formaldehyde solution for histopathological assessment by hematoxylin and eosin (H&E) staining. Pathological changes were scored to assess individual therapeutic status as described previously (Song et al., [2015]; Lei et al., [2018]). The remaining half of livers and spleens were added with 1 mL of PBS, homogenized, and serially diluted. Bacterial CFU counts were measured.
Figure 9 Therapeutic potency of peritonitis by Myr-36PW in vivo. The livers and spleens (n = 5) in each group were collected on day 4 after the intraperitoneal injection of S. aureus ATCC 25923. (A) Morphological changes in liver and spleen tissues. (B) Representative histopathological images of processed liver and spleen sections with hematoxylin and eosin (H&E) staining. Images are presented at a magnification of 40×. a: central venous hemorrhage. b: the cells fuse into pieces, and the nucleus dissolves and disappears. c: cytoplasmic cavitation. (C,D) Pathological scores of the liver and spleen sections. Scoring standard: 1 indicated no pathology, 2 indicated perivascular infiltrates, 3 indicated perivascular or interstitial infiltrates affecting <20% of the section, 4 indicated perivascular or interstitial infiltrates affecting 20–50% of the section, and 5 indicated perivascular or interstitial infiltrates affecting >50% of the section. (E,F) Bacterial CFU in liver and spleen homogenate. BP is benzylpenicillin potassium. Data represent the mean ± SD of five individual experiments.

S. typhimurium SL 1344 = format: cell-based, Salmonella typhimurium
Procedure: as §1

[3] = tested on: S. aureus ATCC 25923, S. typhimurium SL 1344, and P. aeruginosa GIM 1.551; assay: Biofilm inhibition assay (crystal violet); format: cell-based; details: 0.25–128 μg/mL, 24 h at 37°C, crystal violet OD 620 nm; n = 5
Procedure: The biofilm-inhibiting ability of Myr-36PW was evaluated against S. aureus ATCC 25923, S. typhimurium SL 1344, and P. aeruginosa GIM 1.551 by using crystal violet dye (Chen et al., [2018]; de Breij et al., [2018]). Overnight cultured strains in TSB medium were diluted to 1 × 10^6 CFU/mL, 100 μL of bacterial suspension with 100 μL of different concentration of peptides (0.25–128 μg/mL) was added into a 96-well plate. Bacterial suspension without peptides was used the negative control. After incubation for 24 h at 37°C, the supernatant weas discarded, and the biofilm was gently washed with PBS, fixed in methanol for 20 min, stained with 0.1% (w/v) crystal violet for 10 min, and finally removed. After washing with PBS, 95% ethanol was added into wells, and the optical density (OD) was measured at 620 nm.
Figure 6 Biofilm inhibition and eradication of Myr-36PW. (A–C) Inhibition of biofilm formation by Myr-36PW. (D) Eradication of preformed biofilm by Myr-36PW. (E) Killing effect of Myr-36PW against biofilm bacteria. Inhibition rate % = [1 – OD620 nm(peptides)/OD620 nm(bacteria)] × 100%. Biofilm mass % = OD620 nm(peptides)/OD620 nm(control) × 100%. The control group was bacterial culture without peptides. Data represent the mean ± SD (n = 5).

S. aureus ATCC 25923 [4] = assay: Inhibition zone assay (disk diffusion); format: cell-based, Staphylococcus aureus; set-up: key: +, means the peptide has antibacterial activity; details: disk 10 μg peptide, 18 h at 37°C, * P < 0.05, ** P < 0.01 vs PMAP-36PW
Procedure: The inhibition zone assay was performed through the disk diffusion to evaluate the antimicrobial activity of Myr-36PW in vitro (Dunne et al., [2017]). The four above-mentioned bacterial strains were used as experimental strains, with L. monocytogenes CICC 21634 cultured in BHI medium, and P. aeruginosa GIM 1.551 cultured in TSB medium. The bacterial cells were cultured for 12 h at 37°C in the appropriate medium, and the bacterial cell suspension was spread on LB agar. The disks containing 10 μg of peptides (1 μg/μL) were attached to the solid medium and incubated at 37°C for 18 h. Finally the diameter of the inhibition zone was measured.

Structure (SMILES) | MICs of different classes of antibiotics ([1]; L. monocytogenes CICC 21634, * indicates resistant (CLSI, 2020)) | Liver and spleen histopathology (H&E) (S. aureus ATCC 25923 [2]) | Liver pathogenic scores (S. aureus ATCC 25923 [2]) | Bacterial CFU in liver and spleen homogenate (S. aureus ATCC 25923 [2]) | Spleen pathogenic scores (S. aureus ATCC 25923 [2]) | MICs of different classes of antibiotics (S. typhimurium SL 1344; S. typhimurium SL 1344, * indicates resistant (CLSI, 2020)) | MICs ([1]; CICC 21634, 18 h) | Inhibition of biofilm formation [3] | In vitro antibacterial activity (disk diffusion) (S. aureus ATCC 25923 [4]) | MICs (S. typhimurium SL 1344; SL 1344, 18 h)
CC1(C)S[C@@H]2[C@H](NC(=O)Cc3ccccc3)C(=O)N2[C@H]1C(=O)O [Benzylpenicillin potassium] | 64 µg/mL | the liver cells of mice were neatly arranged with clear cell boundaries and no pathological changes in spleen tissues | significantly lower than PBS group (P < 0.01) | significantly decreased compared with that of PMAP-36PW group (P < 0.05) | displayed significant difference (P < 0.01); also recorded: lower than those for PMAP-36PW group (P < 0.05) | 16 µg/mL | – | – | – | –
CCCCCCCCCCCCCC(=O)NCC(=O)NCC(=O)N[C@@H](CCCNC(=N)N)C(=O)N[C@@H](Cc1ccccc1)C(=O)N[C@@H](CCCNC(=N)N)C(=O)N[C@@H](CCCNC(=N)N)C(=O)N[C@@H](CC(C)C)C(=O)N[C@@H](CCCNC(=N)N)C(=O)N[C@@H](CCCCN)C(=O)N[C@@H](CCCCN)C(=O)N[C@H](C(=O)N[C@@H](CCCNC(=N)N)C(=O)N[C@@H](CCCCN)C(=O)N[C@@H](CCCNC(=N)N)C(=O)N[C@@H](CC(C)C)C(=O)N[C@@H](CCCCN)C(=O)N[C@@H](CCCCN)C(=O)N[C@H](C(=O)NCC(=O)N[C@@H](CCCCN)C(=O)N[C@H](C(=O)N[C@@H](CC(C)C)C(=O)N[C@@H](CCCCN)C(=O)N[C@@H](Cc1c[nH]c2ccccc12)C(=O)N[C@H](C(=O)N[C@@H](Cc1c[nH]c2ccccc12)C(=O)N[C@@H](Cc1c[nH]c2ccccc12)C(=O)N[C@H](C(=O)N[C@H](C(=O)NCC(=O)N[C@@H](CO)C(=O)N[C@H](C(=O)N1CCC[C@H]1C(=O)N[C@@H](CC(C)C)C(=O)NCC(=O)N[C@@H](CS)C(=O)NCC(=O)O)[C@@H](C)CC)C(C)C)[C@@H](C)CC)[C@@H](C)CC)C(C)C)[C@@H](C)CC)[C@@H](C)O [Myr-36PW] (Myristoyl-GGRFRRLRKKTRKRLKKIGKVLKWIWWIVGSIPLGCG-OH; C-terminus assumed) | – | the liver cells of mice were neatly arranged with clear cell boundaries and no pathological changes in spleen tissues | significantly lower than PBS group (P < 0.01) | significantly decreased compared with that of PMAP-36PW group (P < 0.05) | displayed significant difference (P < 0.01); also recorded: lower than those for PMAP-36PW group (P < 0.05) | – | 0.5 µg/mL | biofilm inhibition against the tested bacteria in a concentration-dependent manner | +** | 8 µg/mL
